According to patent EP0558321A1 (priority 1992, dated 1993):
Structures can show the parent of a compound that is named as a salt. Where two headings read alike, the source gives them in different places.

Legend:
influenza virus [1] = settings: from "Acta Virol.", 28, pp. 501-507 (1984); cited from earlier work
influenza A virus = settings: prior art statement; cited from earlier work
influenza B virus = settings: prior art statement; cited from earlier work
influenza virus [2] = settings: prior art statement; clinical efficacy not yet verified; cited from earlier work
herpes virus = settings: from "J. Gen. Virol.", 67, pp. 1115-1122 (1986); cited from earlier work
[3] = system: influenza virus (A/PR/8 strain); experiment: microbe, parasite or virus in culture; assay type: cell-based; settings: unidentified influenza virus, PR/8, MDCK, read-out: Antiviral Activitiy (ΔTCID₅₀)(log₁₀)
HSV-1 (Miyama strain) = experiment: microbe, parasite or virus in culture; assay type: cell-based, herpes simplex virus type 1
[4] = Human alphaherpesvirus 1, GMK, read-out: Antiviral Activity (ΔTCID₅₀)(log₁₀), compound concentration 10 µg/ml, GMK cells
[5] = compound concentration 10 µg/ml, GMK cells
[6] = compound concentration 50 µg/ml, GMK cells
[7] = Human alphaherpesvirus 1, GMK, read-out: Antiviral Activity (ΔTCID₅₀)(log₁₀)
[8] = Human alphaherpesvirus 1, GMK, read-out: Antiviral Activity (ΔTCID₅₀)(log₁₀), compound concentration 5 µg/ml, GMK cells
[9] = Human alphaherpesvirus 1, GMK, read-out: Antiviral Activity (ΔTCID₅₀)(log₁₀), compound concentration 20 µg/ml, GMK cells

Molecule | log reduction at 10 µg/mL [3] | log reduction at 10 µg/mL (HSV-1 (Miyama strain); [4]) | cytotoxicity (GMK cells) | log reduction at 5 µg/mL [3] | also measured
OC(CCN1CCCCC1)(c1ccccc1)C1CC2C=CC1C2 (centres unmarked) [Akineton] |  |  |  |  | anti influenza virus action (influenza virus [1]): confirmed to have an anti influenza virus action
NC12CC3CC(CC(C3)C1)C2 [Amantadine] |  |  |  |  | efficacy against influenza A virus (influenza A virus): efficacious against influenza A virus; efficacy against influenza B virus (influenza B virus): not against influenza B virus
N#C[N-]c1nncs1.[Na+] [LY253963] |  |  |  |  | activity against influenza virus in animal tests (influenza virus [2]): resistant to influenza virus in animal tests
OC(CCN1CCCCC1)(c1ccccc1)C1C2CC3C(C2)C31 (centres unmarked) [Norakin] |  |  |  |  | anti influenza virus action (influenza virus [1]): confirmed to have an anti influenza virus action; anti-viral activity against herpes virus (herpes virus): lack in anti-viral activity against herpes virus
OC(CCN1CCCCC1)(c1ccccc1)C1C2CC3C(C2)C31 (stereo not drawn) [Prep. Ex. 1, (1R*)-1-phenyl-3-piperidino-1-((3'S*)-3-tricyclo[2.2.1.0]heptyl)propan-1-ol hydrochloride] | 0.44 | 0.83 |  |  | log reduction at 20 µg/mL [3]: > 3.17; log reduction at 50 µg/mL (HSV-1 (Miyama strain); Human alphaherpesvirus 1, GMK, read-out: Antiviral Activity (ΔTCID₅₀)(log₁₀), compound concentration 50 µg/ml, GMK cells): > 3
OC(c1ccccc1)(C1C2CC3C(C2)C31)C12CCCN1CCC2 (stereo not drawn) [Prep. Ex. 3, (1R*)-1-(1-azabicyclo[3.3.0]octan-5-yl)1-phenyl-1-[(3'S*)-3-tricyclo[2.2.1.0]heptyl]methan-1-ol hydrochloride] |  |  |  |  | Antiviral Activity (ΔTCID₅₀)(log₁₀) (HSV-1 (Miyama strain); [5]): 0.00 (-) log₁₀; Antiviral Activity (ΔTCID₅₀)(log₁₀) (HSV-1 (Miyama strain); [6]): >3.00 (-) log₁₀
CC(C(O)(c1ccccc1)C1C2CC3C(C2)C31)C12CCCN1CCC2 (centres unmarked) [Prep. Ex. 6, 2-(1-azabicyclo[3.3.0]octan-5-yl)-1-phenyl-1-(3-tricyclo [2.2.1.0]heptyl)propan-1-ol] |  |  |  |  | Antiviral Activity (ΔTCID₅₀)(log₁₀) (HSV-1 (Miyama strain); [5]): 1.00 (±) log₁₀
OC(c1ccccc1)(C1C2CC3CC(C2)CC1C3)C12CCCN1CCC2 (centres unmarked) [Prep. Ex. 8, 1-(1-azabicyclo[3.3.0]octan-5-yl)-1-phenyl-1-(2-tricyclo[3.3. 1.1^3.7]decyl)methan-1-ol] | 0.67 |  |  |  | log reduction at 20 µg/mL [3]: > 3.5; log reduction at 5 µg/mL (HSV-1 (Miyama strain); [7]): 0.5; log reduction at 10 µg/mL (HSV-1 (Miyama strain); [7]): 0.66; log reduction at 20 µg/mL (HSV-1 (Miyama strain); [7]): 2.66
OC(c1ccc2ccccc2c1)(C1C2CC3CC(C2)CC1C3)C12CCCN1CCC2 (centres unmarked) [Prep. Ex. 9, 1-(1-azabicyclo[3.3.0]octan-5-yl)-1-(2-naphthyl)-1-(2-tricyclo [3.3.1.1^3.7]decyl)methan-1-ol] |  | 2.17 | 2.17 (-) |  | log reduction at 5 µg/mL (HSV-1 (Miyama strain); [8]): 1.17
OC(c1ccc(F)cc1)(C1C2CC3CC(C2)CC1C3)C12CCCN1CCC2 (centres unmarked) [Prep. Ex. 10, 1-(1-azabicyclo[3.3.0]octan-5-yl)-1-(4-fluoropheyl)-1-(2-tricyclo [3.3.1.1^3.7]decyl)methan-1-ol] | > 3.17 | 1.17 |  | 2 | Antiviral Activity (ΔTCID₅₀)(log₁₀) (HSV-1 (Miyama strain); compound concentration 5 µg/ml, GMK cells): 0.83 (-) log₁₀
OC(c1ccc(F)cc1)(C1C2CC3CC(C2)CC1C3)C12CCCN1CCC2 (centres unmarked) [Prep. Ex. 11, 1-(1-azabicyclo[3.3.0]octan-5-yl)-1-(4-fluoropheyl)-1-(2-tricyclo [3.3.1.1^3.7]decyl)methan-1-ol hydrochloride] |  |  |  |  | Antiviral Activity (ΔTCID₅₀)(log₁₀) (HSV-1 (Miyama strain); compound concentration 5 µg/ml, GMK cells, hydrochloride): 0.00 (-) log₁₀
CN(C)c1ccc(C(O)(C2C3CC4CC(C3)CC2C4)C23CCCN2CCC3)cc1 (centres unmarked) [Prep. Ex. 13, 1-(1-azabicyclo[3.3.0]octan-5-yl)-1-(4-dimethylaminophenyl)-1-(2-tricyclo[3.3.1.1^3.7]decyl)methan-1-ol dihydrochloride] | 0.17 | 0.77 |  |  | cytotoxicity (MDCK cells): 0.17 (+); log reduction at 20 µg/mL (HSV-1 (Miyama strain); [9]): 3
COc1ccc(C(O)(C2C3CC4CC(C3)CC2C4)C23CCCN2CCC3)cc1 (centres unmarked) [Prep. Ex. 15, 1-(1-azabicyclo[3.3.0]octan-5-yl)-1-(4-methoxyphenyl)-1-(2-tricyclo[3.3.1.1^3.7]decyl)methan-1-ol hydrochloride] | > 2.17 | 0.67 | 0.67 (-) | 0 | log reduction at 20 µg/mL [3]: > 3.5
OC(c1ccc(C(F)(F)F)cc1)(C1C2CC3CC(C2)CC1C3)C12CCCN1CCC2 (centres unmarked) [Prep. Ex. 17, 1-(1-azabicyclo[3.3.0]octan-5-yl)-1-(4-trifluoromethylphenyl)-1-(2-tricyclo[3.3.1.1³^.7]decyl)methan-1-ol hydrochloride] | 0.33 | 0.33 | 0.33 (-) | 0.33 | log reduction at 20 µg/mL [3]: 0.33; log reduction at 20 µg/mL (HSV-1 (Miyama strain); [9]): 0.33
COc1cccc(C(O)(C2C3CC4CC(C3)CC2C4)C23CCCN2CCC3)c1 (centres unmarked) [Prep. Ex. 19, 1-(1-azabicyclo[3.3.0]octan-5-yl)-1-(3-methoxyphenyl)-1-(2-tricyclo[3.3.1.1³^.7]decyl)methan-1-ol hydrochloride] | 0.17 | 0 |  | 0 | log reduction at 20 µg/mL [3]: > 3.17; log reduction at 20 µg/mL (HSV-1 (Miyama strain); [9]): > 2
OC(c1cccc(C(F)(F)F)c1)(C1C2CC3CC(C2)CC1C3)C12CCCN1CCC2 (centres unmarked) [Prep. Ex. 21, 1-(1-azabicyclo[3.3.0]octan-5-yl)-1-(3-trifluoromethylphenyl)-1-(2-tricyclo[3.3.1.1^3.7]decyl)methan-1-ol hydrochloride] | 0.27 | 0.33 |  | 0 | log reduction at 5 µg/mL (HSV-1 (Miyama strain); [8]): 0.5
COc1ccccc1C(O)(C1C2CC3CC(C2)CC1C3)C12CCCN1CCC2 (centres unmarked) [Prep. Ex. 23, 1-(1-azabicyclo[3.3.0]octan-5-yl)-1-(2-methoxyphenyl)-1-(2-tricyclo[3.3.1.1^3.7]decyl)methan-1-ol hydrochloride] |  | 0.17 | 0.17 (+) |  | 
Cc1ccccc1C(O)(C1C2CC3CC(C2)CC1C3)C12CCCN1CCC2 (centres unmarked) [Prep. Ex. 25, 1-(1-azabicyclo[3.3.0]octan-5-yl)-1-(2-methylphenyl)-1-(2-tricyclo[3.3.1.1^3.7]decyl)methan-1-ol hydrochloride] |  | > 3 | >3.00 (+) |  | 
Cc1ccc(C(O)(C2C3CC4CC(C3)CC2C4)C23CCCN2CCC3)cc1 (centres unmarked) [Prep. Ex. 27, 1-(1-azabicyclo[3.3.0]octan-5-yl)-1-(4-methylphenyl)-1-(2-tricyclo-[3.3.1.1^3.7]decyl)methan-1-ol hydrochloride] | 0.17 | 2.17 |  | 0.17 | log reduction at 20 µg/mL [3]: 2.17; log reduction at 20 µg/mL (HSV-1 (Miyama strain); [9]): > 3
OC(c1ccc(-c2ccccc2)cc1)(C1C2CC3CC(C2)CC1C3)C12CCCN1CCC2 (centres unmarked) [Prep. Ex. 29, 1-(1-azabicyclo[3.3.0]octan-5-yl)-1-(4-biphenyl)-1-(2-tricyclo[3.3.1.1^3.7]decyl)methan-1-ol hydrochloride] | > 3 | > 3.17 | >3.17 (+) | > 3 | cytotoxicity (MDCK cells): >3.00 (+)
CC1(c2ccc(C(O)(C3C4CC5CC(C4)CC3C5)C34CCCN3CCC4)cc2)OCCS1 (centres unmarked) [Prep. Ex. 30, 1-(1-azabicyclo[3.3.0]octan-5-yl)-1-(4-(2-methyl-1,3-thioxolane-2-yl)phenyl)-1-(2-tricyclo[3.3.1.1^3.7]decyl)methan-1-ol] | > 3 | > 3.17 | >3.17 (+) | > 3 | cytotoxicity (MDCK cells): >3.00 (+)
CC(=O)c1ccc(C(O)(C2C3CC4CC(C3)CC2C4)C23CCCN2CCC3)cc1 (centres unmarked) [Prep. Ex. 32, 1-(4-acetylphenyl)-1-(1-azabicyclo[3.3.0]octan-5-yl)-1-(2-tricyclo[3.3.1.1³^.7]decyl)methan-1-ol hydrochloride] | 1 | 0.33 | 0.33 (+) | 0.5 | log reduction at 20 µg/mL [3]: 1.16
CC(N)C12CC3CC(CC(C3)C1)C2 (centres unmarked) [remantadine, Remantadine] |  |  |  |  | efficacy against influenza A virus (influenza A virus): efficacious against influenza A virus; efficacy against influenza B virus (influenza B virus): not against influenza B virus
(1R*)-1-(1-azabicyclo[3.3.0]octan-5-yl)-1-phenyl-1-((3'R*)-3-tricyclo[2.2.1.0]heptyl)methanol hydrochloride [Prep. Ex. 4] |  |  |  |  | Antiviral Activity (ΔTCID₅₀)(log₁₀) (HSV-1 (Miyama strain); [5]): 0.66 (-) log₁₀; Antiviral Activity (ΔTCID₅₀)(log₁₀) (HSV-1 (Miyama strain); [6]): 1.33 (±) log₁₀
(1R*)-1-phenyl-3-piperidino-1-((3'R*)-3-tricyclo[2.2.1.0] heptyl)propan-1-ol hydrochloride [Prep. Ex. 2] |  |  |  |  | Antiviral Activity (ΔTCID₅₀)(log₁₀) (HSV-1 (Miyama strain); [5]): 0.17 (-) log₁₀; Antiviral Activity (ΔTCID₅₀)(log₁₀) (HSV-1 (Miyama strain); [6]): >3.00 (+) log₁₀
